e = 2'-O-(2-methoxyethyl) (MOE); k = constrained ethyl (cEt); d = 2'-deoxy (DNA); f = 2'-fluoro
biological target: EGFR (Homo sapiens, UniProt P00533); test: Competitive NanoBRET binding assay; design: made in house; host or cells: HEK293 cells; details: Competitive BRET vs 10 nM AF594-labeled 766636; Table 6
Method: NanoBRET (bioluminescence resonance energy transfer) binding assays were performed as described in Vickers and Crooke. PLOS One, 11(8), (2016). An EGFR NLuc construct was prepared by first amplifying human EGFR from the full length cDNA clone (Origene RC217223) with forward PCR primer 5′-[…]-3′ (SEQ ID NO: 1) and reverse PCR primer 5′-[…] (SEQ ID NO: 2). The amplified product was ligated into the NheI and XhoI sites of the NanoLuc expression vector pFC32K Nluc CMV-Neo (Promega). Protein was expressed in HEK293 cells and isolated using Protein G magnetic beads. For competitive BRET, the Alexafluor594-labeled modified oligonucleotide 766636 was diluted into water in opaque white 96-well plates at 10 nM and competed with 0.1-10,000 nM of unlabeled modified oligonucleotide. […] of 2× binding buffer containing […] (relative luminescence units) beads/well was added and plates were shaken for 10 minutes at room temperature. Nanoluciferase activity and BRET were measured in a Glowmax Discover plate reader and EC50 values, shown in the tables below, were calculated using GraphPad Prism. For direct BRET, Alexafluor594 modified nucleotides were diluted at 0.1-10,000 nM and experiments were performed as described above.

First: CTAACATGCAATACTGCAGA (sugars from the 5' end e5 d10 e5, all phosphorothioate, methylation of C not given here) [compound 395257, 5-10-5 2′-MOE gapmer, phosphorothioate]
Second: CCTTCCACAATGCCAA (sugars from the 5' end k3 d10 k3, all phosphorothioate, methylation of C not given here) [compound 999002, 3-10-3 cEt gapmer, phosphorothioate]
The EC50 of the first is 4.2-fold higher: 2.63 µM for the first, 0.633 µM for the second.

“AACGAGGTACTGTGTAAGTC (sugars from the 5' end f5 d10 f5, all phosphorothioate, methylation of C and T or U not given here) [compound 1147369]” and “ACACGGTATTGCCCTTGAAA (sugars from the 5' end e5 d10 e5, all phosphorothioate, methylation of C not given here) [compound 110128, 5-10-5 2′-MOE gapmer, phosphorothioate]” are within 1.5-fold of each other in EC50: 2.63 µM for the first, 2.28 µM for the second.

Going from “AGTTGTCATGGATGAC (sugars from the 5' end k3 d10 k3, all phosphorothioate, methylation of C not given here) [compound 999003]” to “AUAAUCTTCCAGGGCCACAA (sugars from the 5' end f5 d10 f5, all phosphorothioate, methylation of C not given here) [compound 1147360, 5-10-5 2′-F gapmer, phosphorothioate]”, the EC50 falls from 2.3 µM to 0.108 µM (21-fold). The second is the more potent here.

Compared with “CTGATGATCTGCAGGTTTTC (sugars from the 5' end f5 d10 f5, all phosphorothioate, methylation of C and T or U not given here) [compound 1147367]”, “GACTGTGGTCATGAGC (sugars from the 5' end k3 d10 k3, all phosphorothioate, methylation of C not given here) [compound 999001]” is 21-fold higher in EC50: 0.114 µM for the first, 2.34 µM for the second.

Compared with “AATCTCCTTGCTGTATTTGT (sugars from the 5' end f5 d10 f5, all phosphorothioate, methylation of C and T or U not given here) [compound 1147334, 5-10-5 2′-F gapmer, phosphorothioate]”, “GGCCATCACGCCACAG (sugars from the 5' end k3 d10 k3, all phosphorothioate, methylation of C not given here) [compound 998997, 3-10-3 cEt gapmer, phosphorothioate]” is 1.6-fold lower in EC50: 4.37 µM for the first, 2.8 µM for the second. The second is the more potent here.

Going from “GAGTCAGTATCCCAGTGTCT (sugars from the 5' end f5 d10 f5, all phosphorothioate, methylation of C and T or U not given here) [compound 1147314, 5-10-5 2′-F gapmer, phosphorothioate]” to “CTTTCCAGAGGGGCCA (sugars from the 5' end k3 d10 k3, all phosphorothioate, methylation of C not given here) [compound 998998, 3-10-3 cEt gapmer, phosphorothioate]”, the EC50 falls from 0.218 µM to 0.00725 µM (30-fold). The second is the more potent here.

Going from “TCCACAGTCTTCTGGG (sugars from the 5' end k3 d10 k3, all phosphorothioate, methylation of C not given here) [compound 998999, 3-10-3 cEt gapmer, phosphorothioate]” to “TTCTGGGCAGCCCCAC (sugars from the 5' end k3 d10 k3, all phosphorothioate, methylation of C not given here) [compound 998996, 3-10-3 cEt gapmer, phosphorothioate]”, the EC50 rises from 0.214 µM to 1.43 µM (6.7-fold).

First: TTTTGGCAAAGTAATCGTCC (sugars from the 5' end e5 d10 e5, all phosphorothioate, methylation of C not given here) [compound 286529, 5-10-5 2′-MOE gapmer, phosphorothioate]
Second: TGGTAATCCACTTTCAGAGG (sugars from the 5' end e5 d10 e5, all phosphorothioate, methylation of C not given here) [compound 404071, 5-10-5 2′-MOE gapmer, phosphorothioate]
The EC50 of the first is 1.7-fold lower: 1.84 µM for the first, 3.14 µM for the second. The first is the more potent here.

First: ATATTGCATCAGATCTCAAT (sugars from the 5' end f5 d10 f5, all phosphorothioate, methylation of C and T or U not given here) [compound 1147370]
Second: TAAGTACTACTGGGCCATGG (sugars from the 5' end e5 d10 e5, all phosphorothioate, methylation of C not given here) [compound 324568, 5-10-5 2′-MOE gapmer, phosphorothioate]
The EC50 of the first is 7.2-fold higher: 4.65 µM for the first, 0.648 µM for the second. The second is the more potent here.

“AGGATGCATTGCTGAC (sugars from the 5' end k3 d10 k3, all phosphorothioate, methylation of C not given here) [compound 999006]” and “ACCCAATTCAGAAGGAAGGA (sugars from the 5' end e5 d10 e5, all phosphorothioate, methylation of C not given here) [compound 476366, 5-10-5 2′-MOE gapmer, phosphorothioate]” are within 1.5-fold of each other in EC50: 1.71 µM for the first, 2.24 µM for the second.

Going from “CUGUUGGGATATTTTAGCCU (sugars from the 5' end f5 d10 f5, all phosphorothioate, methylation of C not given here) [compound 1147366]” to “TGGCAGTGATGGCATG (sugars from the 5' end k3 d10 k3, all phosphorothioate, methylation of C not given here) [compound 999000]”, the EC50 rises from 0.0873 µM to 1.4 µM (16-fold). The first is the more potent here.

Compared with “CCTTCCCTGAAGGTTCCTCC (sugars from the 5' end f5 d10 f5, all phosphorothioate, methylation of C and T or U not given here) [compound 804856, 5-10-5 2′-F gapmer, phosphorothioate]”, “TCGTCTGTGCATCTCTCCTG (sugars from the 5' end f5 d10 f5, all phosphorothioate, methylation of C and T or U not given here) [compound 1147291, 5-10-5 2′-F gapmer, phosphorothioate]” is 17-fold lower in EC50: 2.75 µM for the first, 0.165 µM for the second. The second is the more potent here.

First: AAGCAGTTGGTGGTGC (sugars from the 5' end k3 d10 k3, all phosphorothioate, methylation of C not given here) [compound 999005]
Second: CAGCAGGCAACTGTCGCTGA (sugars from the 5' end e5 d10 e5, all phosphorothioate, methylation of C not given here) [compound 462026, 5-10-5 2′-MOE gapmer, phosphorothioate]
The EC50 of the first is 17-fold lower: 0.0391 µM for the first, 0.67 µM for the second.
